From PMC5399447, “Neuroprotective pentapeptide CN-105 is associated with reduced sterile inflammation and improved functional outcomes in a traumatic brain injury murine model” (Scientific Reports, 2017)

Tested on: 84 genes related to inflammatory and autoimmune processes
Experiment: Mouse Inflammatory Response and Autoimmunity PCR Array, whole brain
Type: in vivo
Details: brain 24 h
Method: Frozen, pulverized whole brain tissue was processed for RNA extraction from a separate cohort of treated and untreated injured animals on days 1 post-injury(CN-105, n = 4; vehicle, n = 3; Control(sham-operated), n = 3). Total RNA was extracted from frozen, pulverized whole brain tissue using RNeasy Lipid Tissue Mini Kit(Qiagen, Valencia, CA). RNA quantity and quality was assessed with the NanoDrop ND-1000 spectrophotometer(NanoDrop Technologies, Inc., Wilmington, DE) and by agarose gel electrophoresis. Only samples with a 260/280 ratio between 1.9–2.1, and a 260/230 ratio greater than 2.0, were further processed. First strand complementary DNA(cDNA) was generated from 2 μg total RNA using the RT[2] First strand kit(SABiosciences, Frederick, MD.)
Gene expression was measured using the Mouse Inflammatory Response and Autoimmunity PCR Array(SABiosciences, Frederick, MD), which profiles the expression of 84 genes related to inflammatory and autoimmune processes. RT-PCR was performed according to manufacturer’s instructions Quality of the cDNA and PCR efficiency was verified by housekeeping genes and RT-PCR controls included in the PCR Array.
Raw RT-PCR data were analyzed using the Web-Based PCR Array Data Analysis software(SABiosciences). ΔCt values and ΔΔCt - based fold-change were calculated from raw threshold cycle data, using beta-actin and glyceraldehyde 3-phosphate dehydrogenase(GAPDH) as internal standards for normalization. Fold changes were then normalized against sham-operated controls.

Ac-VSRRR-amide [CN-105]
Il22ra2 ΔCt value, S-CN-105 (sham + CN-105 0.05 mg/kg iv): 1.1E − 04
Il22 ΔCt value, S-CN-105 (sham + CN-105 0.05 mg/kg iv): 4.7E − 04
Il23a ΔCt value, S-CN-105 (sham + CN-105 0.05 mg/kg iv): 8.0E − 05
Il23r ΔCt value, S-CN-105 (sham + CN-105 0.05 mg/kg iv): 1.5E − 04
Itgb2 ΔCt value, S-CN-105 (sham + CN-105 0.05 mg/kg iv): 1.3E − 02
Kng1 ΔCt value, S-CN-105 (sham + CN-105 0.05 mg/kg iv): 1.4E − 05
Lta ΔCt value, S-CN-105 (sham + CN-105 0.05 mg/kg iv): 2.6E − 04
Ltb ΔCt value, S-CN-105 (sham + CN-105 0.05 mg/kg iv): 1.0E − 03
Ly96 ΔCt value, S-CN-105 (sham + CN-105 0.05 mg/kg iv): 7.2E − 03
Myd88 ΔCt value, S-CN-105 (sham + CN-105 0.05 mg/kg iv): 1.1E − 03
Nfatc3 ΔCt value, S-CN-105 (sham + CN-105 0.05 mg/kg iv): 2.1E − 02
Nfkb1 ΔCt value, S-CN-105 (sham + CN-105 0.05 mg/kg iv): 3.1E − 02
Nos2 ΔCt value, S-CN-105 (sham + CN-105 0.05 mg/kg iv): 8.9E − 05
Nr3c1 ΔCt value, S-CN-105 (sham + CN-105 0.05 mg/kg iv): 4.0E − 01
Ripk2 ΔCt value, S-CN-105 (sham + CN-105 0.05 mg/kg iv): 1.1E − 02
Tirap ΔCt value, S-CN-105 (sham + CN-105 0.05 mg/kg iv): 7.8E − 03
Tlr1 ΔCt value, S-CN-105 (sham + CN-105 0.05 mg/kg iv): 1.0E − 03
Tlr2 ΔCt value, S-CN-105 (sham + CN-105 0.05 mg/kg iv): 1.3E − 03
Tlr3 ΔCt value, S-CN-105 (sham + CN-105 0.05 mg/kg iv): 2.3E − 02
Tlr4 ΔCt value, S-CN-105 (sham + CN-105 0.05 mg/kg iv): 3.5E − 03
Tlr5 ΔCt value, S-CN-105 (sham + CN-105 0.05 mg/kg iv): 6.3E − 04
Tlr6 ΔCt value, S-CN-105 (sham + CN-105 0.05 mg/kg iv): 6.2E − 04
Tlr7 ΔCt value, S-CN-105 (sham + CN-105 0.05 mg/kg iv): 2.6E − 03
Tnf ΔCt value, S-CN-105 (sham + CN-105 0.05 mg/kg iv): 3.5E − 05
Tnfsf14 ΔCt value, S-CN-105 (sham + CN-105 0.05 mg/kg iv): 1.3E − 04
Tollip ΔCt value, S-CN-105 (sham + CN-105 0.05 mg/kg iv): 3.2E − 01
Bcl6 fold change S-CN-105/S-v (sham CN-105 vs sham vehicle): 1.3
C3ar1 fold change S-CN-105/S-v (sham CN-105 vs sham vehicle): 1.2
C3 fold change S-CN-105/S-v (sham CN-105 vs sham vehicle): 1.7
C4b fold change S-CN-105/S-v (sham CN-105 vs sham vehicle): 2.0
Ccl2 fold change S-CN-105/S-v (sham CN-105 vs sham vehicle): 1.4
Ccl3 fold change S-CN-105/S-v (sham CN-105 vs sham vehicle): 1.6
Ccl4 fold change S-CN-105/S-v (sham CN-105 vs sham vehicle): 1.0
Ccl5 fold change S-CN-105/S-v (sham CN-105 vs sham vehicle): 1.2
Ccl7 fold change S-CN-105/S-v (sham CN-105 vs sham vehicle): 1.3
Ccl8 fold change S-CN-105/S-v (sham CN-105 vs sham vehicle): 2.8
Ccl11 fold change S-CN-105/S-v (sham CN-105 vs sham vehicle): 3.2
Ccl12 fold change S-CN-105/S-v (sham CN-105 vs sham vehicle): 1.8
Ccl17 fold change S-CN-105/S-v (sham CN-105 vs sham vehicle): 1.6
Ccl19 fold change S-CN-105/S-v (sham CN-105 vs sham vehicle): 1.5
Ccl20 fold change S-CN-105/S-v (sham CN-105 vs sham vehicle): 4.4
Ccl22 fold change S-CN-105/S-v (sham CN-105 vs sham vehicle): 3.1
Ccl24 fold change S-CN-105/S-v (sham CN-105 vs sham vehicle): 3.0
Ccl25 fold change S-CN-105/S-v (sham CN-105 vs sham vehicle): 2.6
Ccr1 fold change S-CN-105/S-v (sham CN-105 vs sham vehicle): −1.1
Ccr2 fold change S-CN-105/S-v (sham CN-105 vs sham vehicle): 2.1
Ccr3 fold change S-CN-105/S-v (sham CN-105 vs sham vehicle): 1.2
Ccr4 fold change S-CN-105/S-v (sham CN-105 vs sham vehicle): 1.5
Ccr7 fold change S-CN-105/S-v (sham CN-105 vs sham vehicle): 1.8
Cd40 fold change S-CN-105/S-v (sham CN-105 vs sham vehicle): 1.5
Cebpb fold change S-CN-105/S-v (sham CN-105 vs sham vehicle): 1.6
Csf1 fold change S-CN-105/S-v (sham CN-105 vs sham vehicle): 1.7
Cxcl1 fold change S-CN-105/S-v (sham CN-105 vs sham vehicle): 2.7
Cxcl2 fold change S-CN-105/S-v (sham CN-105 vs sham vehicle): 4.2
Cxcl3 fold change S-CN-105/S-v (sham CN-105 vs sham vehicle): 0.8
Cxcl5 fold change S-CN-105/S-v (sham CN-105 vs sham vehicle): 1.7
Cxcl9 fold change S-CN-105/S-v (sham CN-105 vs sham vehicle): 1.5
Cxcl10 fold change S-CN-105/S-v (sham CN-105 vs sham vehicle): 2.1
Cxcl11 fold change S-CN-105/S-v (sham CN-105 vs sham vehicle): 3.8
Cxcr4 fold change S-CN-105/S-v (sham CN-105 vs sham vehicle): 1.5
Fasl fold change S-CN-105/S-v (sham CN-105 vs sham vehicle): 0.9
Flt3l fold change S-CN-105/S-v (sham CN-105 vs sham vehicle): 1.5
Fos fold change S-CN-105/S-v (sham CN-105 vs sham vehicle): 1.6
Hdac4 fold change S-CN-105/S-v (sham CN-105 vs sham vehicle): 1.5
Ifng fold change S-CN-105/S-v (sham CN-105 vs sham vehicle): 0.8
Il1a fold change S-CN-105/S-v (sham CN-105 vs sham vehicle): 1.4
Il1b fold change S-CN-105/S-v (sham CN-105 vs sham vehicle): 1.8
Il1r1 fold change S-CN-105/S-v (sham CN-105 vs sham vehicle): 2.6
Il1rap fold change S-CN-105/S-v (sham CN-105 vs sham vehicle): 1.5
Il6 fold change S-CN-105/S-v (sham CN-105 vs sham vehicle): −1.3
Il6ra fold change S-CN-105/S-v (sham CN-105 vs sham vehicle): 1.5
Il7 fold change S-CN-105/S-v (sham CN-105 vs sham vehicle): 3.1
Il8rb fold change S-CN-105/S-v (sham CN-105 vs sham vehicle): 7.3
Il10 fold change S-CN-105/S-v (sham CN-105 vs sham vehicle): 5.7
Il10rb fold change S-CN-105/S-v (sham CN-105 vs sham vehicle): 2.0
Il18 fold change S-CN-105/S-v (sham CN-105 vs sham vehicle): 2.0
Il22 fold change S-CN-105/S-v (sham CN-105 vs sham vehicle): 10.8
Il22ra2 fold change S-CN-105/S-v (sham CN-105 vs sham vehicle): 4.8
Il23a fold change S-CN-105/S-v (sham CN-105 vs sham vehicle): 3.0
Il23r fold change S-CN-105/S-v (sham CN-105 vs sham vehicle): 1.4
Itgb2 fold change S-CN-105/S-v (sham CN-105 vs sham vehicle): 2.5
Lta fold change S-CN-105/S-v (sham CN-105 vs sham vehicle): 2.3
Ltb fold change S-CN-105/S-v (sham CN-105 vs sham vehicle): 2.0
Ly96 fold change S-CN-105/S-v (sham CN-105 vs sham vehicle): 1.9
Myd88 fold change S-CN-105/S-v (sham CN-105 vs sham vehicle): 1.5
Nfatc3 fold change S-CN-105/S-v (sham CN-105 vs sham vehicle): 2.4
Nfkb1 fold change S-CN-105/S-v (sham CN-105 vs sham vehicle): 1.8
Nos2 fold change S-CN-105/S-v (sham CN-105 vs sham vehicle): 1.0
Nr3c1 fold change S-CN-105/S-v (sham CN-105 vs sham vehicle): 2.0
Ripk2 fold change S-CN-105/S-v (sham CN-105 vs sham vehicle): 1.5
Tirap fold change S-CN-105/S-v (sham CN-105 vs sham vehicle): 2.1
Tlr1 fold change S-CN-105/S-v (sham CN-105 vs sham vehicle): 2.2
Tlr2 fold change S-CN-105/S-v (sham CN-105 vs sham vehicle): 1.4
Tlr3 fold change S-CN-105/S-v (sham CN-105 vs sham vehicle): 1.6
Tlr4 fold change S-CN-105/S-v (sham CN-105 vs sham vehicle): 1.1
Tlr5 fold change S-CN-105/S-v (sham CN-105 vs sham vehicle): 0.9
Tlr6 fold change S-CN-105/S-v (sham CN-105 vs sham vehicle): 1.3
Tlr7 fold change S-CN-105/S-v (sham CN-105 vs sham vehicle): 1.6
Tnf fold change S-CN-105/S-v (sham CN-105 vs sham vehicle): 1.3
Tnfsf14 fold change S-CN-105/S-v (sham CN-105 vs sham vehicle): 5.2
Tollip fold change S-CN-105/S-v (sham CN-105 vs sham vehicle): 1.9
downregulation of gene expression, sham CN-105 vs sham vehicle (sham mice, 0.05 mg/kg): No downregulation of gene expression was observed
